Legend:
iRFP713 [1] = biological target: T1, iRFP713 (Rhodopseudomonas palustris, UniProt G1FNL7, C15S); test: absorption and fluorescence spectroscopy; BV/PCB competition; format: binding; details: not covalent; overnight with both tetrapyrroles, BV to PCB molar ratio 0.02 to 80
T1 construct: gene iRFP

iRFP713 [2] = biological target: T1, iRFP713; test: absorption, fluorescence, zinc-stained SDS-PAGE; BV/PCB competition; format: binding; details: not covalent; apoprotein with 2-fold excess PCB, pH 8.0, 4 °C

## C=CC1=C(C)C(=Cc2[nH]c(C=C3N=C(C=C4NC(=O)C(C)=C4C=C)C(C)=C3CCC(=O)O)c(CCC(=O)O)c2C)NC1=O [BV, biliverdin IXα]
iRFP713 [1]
  absorption and fluorescence spectroscopy; BV/PCB competition: The binding affinity of BV ligand to iRFP713/C15S

## C/C=C1/C(=C/c2[nH]c(/C=C3N=C(/C=C4\NC(=O)C(CC)=C4C)C(C)=C\3CCC(=O)O)c(CCC(=O)O)c2C)NC(=O)[C@@H]1C [PCB, phycocyanobilin]
iRFP713 [2]
  absorption, fluorescence, zinc-stained SDS-PAGE; BV/PCB competition: iRFP713/C15S, lacking the conserved Cys15 residue, forms a fluorescent complex with PCB
